The structures appear in SMILES notation.

As a reminder, the EC50 is the concentration needed to bring the measured effect to its halfway point. The CC50 is the concentration at which the toxic effect on the cells reaches its halfway point. Read a low CC50 as greater toxicity to the cells. In general, inhibition refers to the percentage by which the read-out fell short of the control.

Series [1] deals with Human immunodeficiency virus 1. The series can be described thus: Antiviral activity against HIV1 LAI infected in CEMx174-LTR-GFP cells assessed as inhibition of viral replication after 5 days by fluorescence assay. Type of series: functional, organism-based.
Series [2] is described as follows: Therapeutic index, ratio of CC50 for human CEmx174 cells expressing LTR-GFP to EC50 for HIV1 LAI. To be noted: read-out: Ratio CC50/EC50.
A short description of series [3]: Cytotoxicity against human CEmx174 cells expressing LTR-GFP. The series is classed as cell-based.
The test system of series [4] is Human immunodeficiency virus 1. The series can be described thus: Antiviral activity against HIV1 LAI infected in CEMx174-LTR-GFP cells assessed as inhibition of viral replication at 10 uM after 5 days by fluorescence assay. Type of series: functional. To be noted: Human immunodeficiency virus 1, LAI, 120 h.
The mark [5] stands for this setting: Human immunodeficiency virus 1, LAI, 120 h, read-out: EC50.

`O=S(=O)(c1cccc(Cl)c1)c1nnn2c1nc(Nc1ccccc1)c1sccc12`: the concentration giving a half-maximal response (EC50) in series [1] (setting [5]) was determined as 2.3 µM. Moreover, the selectivity ratio in series [2] was over 21. Also, the cytotoxic concentration (CC50) in series [3] was over 50 µM.
Consider `Cc1ccc(S(=O)(=O)c2nnn3c2nc(NCCC(C)C)c2sccc23)cc1C`, for which, in series [1] (setting [5]), the EC50 amounted to 9.84 µM.
For the compound `O=S(=O)(c1cccc(Cl)c1)c1nnn2c1nc(NC1CCCCC1)c1sccc12`, the EC50 in series [1] (setting [5]) was 6.7 µM. Moreover, the selectivity ratio in series [2] was over 7.4. This compound displayed a CC50 in series [3] of over 50 µM.
For the compound `Nc1nc2c(S(=O)(=O)c3cccc(Cl)c3)nnn2c2ccsc12`, the EC50 in series [1] (setting [5]) was 1.6 µM. Moreover, the selectivity ratio in series [2] was over 31. Also, the CC50 in series [3] is over 50 µM.
As for `CC(C)Nc1nc2c(S(=O)(=O)c3cccc(Cl)c3)nnn2c2ccsc12`, the EC50 in series [1] (setting [5]) was 2.2 µM. Besides, the selectivity ratio in series [2] is over 22. In series [3], the half-maximal cytotoxic concentration (CC50) was over 50 µM.
With `O=S(=O)(c1cccc(Cl)c1)c1nnn2c1nc(N1CCCCCC1)c1sccc12`, in series [1] (setting [5]), the concentration for a half-maximal effect (EC50) was determined as 4 µM. Further, in series [2], the selectivity ratio stood at 8.7. The same compound came in with a CC50 in series [3] of 35 µM.
In the case of `O=S(=O)(c1cccc(Cl)c1)c1nnn2c1nc(N1CCOCC1)c1sccc12`, the EC50 in series [1] (setting [5]) was 0.27 µM. Moreover, in series [2], the selectivity ratio turned out to be 274. The compound further showed a cytotoxic concentration (CC50) in series [3] of 74 µM.
With `CC(C)CCNc1nc2c(S(=O)(=O)c3cccc(Cl)c3)nnn2c2ccsc12`, in series [4], the inhibition at 10 µM is 58%.
As to `COCCNc1nc2c(S(=O)(=O)c3cccc(Cl)c3)nnn2c2ccsc12`, the EC50 in series [1] (setting [5]) was 1.9 µM. In series [2], the selectivity ratio is over 26. The compound also had a 50% cytotoxic concentration (CC50) in series [3] of over 50 µM.
Taken in the same sequence, the figures for `O=S(=O)(c1cccc(Cl)c1)c1nnn2c1nc(-c1ccccc1Cl)c1sccc12` were 0.67 µM, over 74 and over 50 µM.
In the case of `O=S(=O)(c1cccc(Cl)c1)c1nnn2c1nc(-c1cccc(Cl)c1)c1sccc12`, in series [1] (setting [5]), the 50% effective concentration (EC50) came to 0.54 µM. Moreover, the selectivity ratio in series [2] turned out to be 87. Also, the CC50 in series [3] came out at 47 µM.
Taken in the same sequence, the figures for `O=S(=O)(c1cccc(Cl)c1)c1nnn2c1nc(-c1ccc(Cl)cc1)c1sccc12` were 0.53 µM, 86 and 46 µM.
In the case of `COc1ccccc1-c1nc2c(S(=O)(=O)c3cccc(Cl)c3)nnn2c2ccsc12`, the concentration for a half-maximal effect (EC50) in series [1] (setting [5]) is 1.3 µM. In addition, in series [2], the selectivity ratio turned out to be 34. This compound also gave a CC50 in series [3] of 45 µM.
For `COc1cccc(-c2nc3c(S(=O)(=O)c4cccc(Cl)c4)nnn3c3ccsc23)c1`, in series [1] (setting [5]), the EC50 amounted to 0.32 µM. In addition, the selectivity ratio in series [2] is 143. In series [3], this compound came in with a cytotoxic concentration (CC50) of 46 µM.
As for `COc1ccc(-c2nc3c(S(=O)(=O)c4cccc(Cl)c4)nnn3c3ccsc23)cc1`, the EC50 in series [1] (setting [5]) was 0.06 µM. In addition, the selectivity ratio in series [2] stood at 1000. In series [3], it took 60 µM to reach half-maximal cytotoxicity (CC50).
With `CCOc1ccc(-c2nc3c(S(=O)(=O)c4cccc(Cl)c4)nnn3c3ccsc23)cc1`, in series [1] (setting [5]), the EC50 came to 0.51 µM. In series [2], the selectivity ratio is 119. This compound gave a CC50 in series [3] of 61 µM.
Turning to `O=S(=O)(c1cccc(Cl)c1)c1nnn2c1nc(-c1ccc(O)cc1)c1sccc12`, the EC50 in series [1] (setting [5]) is 0.87 µM. Moreover, in series [2], the selectivity ratio turned out to be 11. The same compound yielded a CC50 in series [3] of 10 µM.
In the case of `CN(C)c1ccc(-c2nc3c(S(=O)(=O)c4cccc(Cl)c4)nnn3c3ccsc23)cc1`, the EC50 in series [1] (setting [5]) was 3.1 µM. Also, the selectivity ratio in series [2] is over 16. The CC50 in series [3] is over 50 µM.
Taken in the same sequence, the figures for `CN1CCN(c2nc3c(S(=O)(=O)c4cccc(Cl)c4)nnn3c3ccsc23)CC1` were 2.1 µM, over 23 and over 50 µM.
Taken in the same sequence, the figures for `O=S(=O)(c1cccc(Cl)c1)c1nnn2c1nc(N1CCN(Cc3ccccc3)CC1)c1sccc12` were 0.71 µM, over 70 and over 50 µM.
Turning to `CCS(=O)(=O)c1nnn2c1nc(N1CCOCC1)c1sccc12`, the EC50 result in series [1] is on record as “Not Active”. For the same compound, the CC50 in series [3] is over 50 µM.
Regarding `O=S(=O)(c1ccccc1)c1nnn2c1nc(N1CCOCC1)c1sccc12`, in series [1] (setting [5]), the EC50 was found to be 16 µM. Moreover, the selectivity ratio in series [2] turned out to be 2.4. The compound further yielded a CC50 in series [3] of 39 µM.
Regarding `O=S(=O)(c1nnn2c1nc(N1CCOCC1)c1sccc12)C1CCCCC1`, the EC50 entry in series [1] was “Not Active”. Moreover, in series [3], the CC50 is over 50 µM.
Take `O=S(=O)(c1ccccc1Cl)c1nnn2c1nc(N1CCOCC1)c1sccc12`: the concentration for a half-maximal effect (EC50) in series [1] (setting [5]) is 1.1 µM. In addition, in series [2], the selectivity ratio worked out at 50. For the same compound, in series [3], the CC50 was 56 µM.
For `O=S(=O)(c1ccc(Cl)cc1)c1nnn2c1nc(N1CCOCC1)c1sccc12`, the concentration for a half-maximal effect (EC50) in series [1] (setting [5]) turned out to be 5 µM. Further, the selectivity ratio in series [2] stood at 14. In addition, half-maximal cytotoxicity in series [3] (CC50) was put at 70 µM.
In the case of `COc1cccc(S(=O)(=O)c2nnn3c2nc(N2CCOCC2)c2sccc23)c1`, in series [1] (setting [5]), the EC50 turned out to be 1.1 µM. Further, in series [2], the selectivity ratio was over 45. Also, the CC50 in series [3] was over 50 µM.
Consider `O=S(=O)(c1cccc(F)c1)c1nnn2c1nc(N1CCOCC1)c1sccc12`, for which the EC50 in series [1] (setting [5]) is 0.85 µM. In addition, in series [2], the selectivity ratio is over 58. In addition, the CC50 in series [3] is over 50 µM.
Taken in the same sequence, the figures for `O=S(=O)(c1cccc(Br)c1)c1nnn2c1nc(N1CCOCC1)c1sccc12` were 3.3 µM, over 15 and over 50 µM.
As for `O=S(=O)(c1cccc(OC(F)(F)F)c1)c1nnn2c1nc(N1CCOCC1)c1sccc12`, in series [1] (setting [5]), the EC50 came to 10 µM. Moreover, in series [2], the selectivity ratio was over 5. The compound further had a CC50 in series [3] of over 50 µM.
Taken in the same sequence, the figures for `O=S(=O)(c1cc(Cl)cc(Cl)c1)c1nnn2c1nc(N1CCOCC1)c1sccc12` were 4 µM, 12.7 and 51 µM.
Taken in the same sequence, the figures for `CCOC(=O)c1nnn2c1nc(N1CCOCC1)c1sccc12` were 0.8 µM, over 62 and over 50 µM.
On to `O=C(O)c1nnn2c1nc(N1CCOCC1)c1sccc12`, for which, in series [1] (setting [5]), the EC50 was determined as 4.8 µM. Moreover, in series [2], the selectivity ratio came out at 8.7. Besides, the midpoint of cytotoxicity in series [3], the CC50, lay at 42 µM.
Regarding `O=C(Nc1ccccc1Cl)c1nnn2c1nc(N1CCOCC1)c1sccc12`, the EC50 in series [1] (setting [5]) stood at 3.5 µM. In addition, the selectivity ratio in series [2] is over 14. This compound returned a CC50 in series [3] of over 50 µM.
Taken in the same sequence, the figures for `O=C(Nc1cccc(Cl)c1)c1nnn2c1nc(N1CCOCC1)c1sccc12` were 0.37 µM, over 135 and over 50 µM.
In the case of `O=C(Nc1ccc(Cl)cc1)c1nnn2c1nc(N1CCOCC1)c1sccc12`, the EC50 in series [1] (setting [5]) worked out at 16 µM. The selectivity ratio in series [2] amounted to 3.5. In series [3], this compound registered a 50% cytotoxic concentration (CC50) of 57 µM.
For `O=C(c1cccc(Cl)c1)c1nnn2c1nc(N1CCOCC1)c1sccc12` the same measures were 0.93 µM, over 53 and over 50 µM.
`O=S(=O)(c1cccc(Cl)c1)c1nnn2c1nc(-c1ccccc1)c1sccc12`: the EC50 in series [1] (setting [5]) was determined as 0.27 µM. Further, in series [2], the selectivity ratio turned out to be 225. Further, the CC50 in series [3] was determined as 61 µM.
Turning to `Cc1ccc(-c2nc3c(S(=O)(=O)c4cccc(Cl)c4)nnn3c3ccsc23)cc1`, the EC50 in series [1] (setting [5]) amounted to 0.84 µM. Further, the selectivity ratio in series [2] stood at 72. For the same compound, the CC50 in series [3] is 61 µM.
Turning to `CN(c1ccccc1)c1nc2c(S(=O)(=O)c3cccc(Cl)c3)nnn2c2ccsc12`, in series [1] (setting [5]), the EC50 was 2.1 µM. Also, the selectivity ratio in series [2] is over 23. In series [3], this compound had a CC50 of over 50 µM.
Taken in the same sequence, the figures for `O=S(=O)(c1cccc(Cl)c1)c1nnn2c1nc(N1CCCCC1)c1sccc12` were 0.19 µM, 394 and 75 µM.
On to `Cc1ccnc2c1NC(=O)c1cccnc1N2C1CC1` [NEVIRAPINE], for which the EC50 in series [1] (setting [5]) was 0.15 µM. The CC50 in series [3] was over 10 µM.
